Experimental data as given in ChEMBL document CHEMBL3588806, “Generation of Broad-Spectrum Antifungal Drug Candidates from the Natural Product Compound Aureobasidin A” (ACS Med Chem Lett, 2015).
In brackets after ≈: the same amount, converted by molar mass. Starred links: 1 amine or outer side, 2 acyl side, 3 side chain; linkers in the order of their positions; H or OH if unused. Non-standard residues stand in square brackets, D forms with d. Residues, ends and D or L forms follow the SMILES beside them. X12 = CC(=O)Nc1ccc(-c2cccc(C[C@@H](C(=O)[*:2])N(C)[*:1])c2)cc1; X15 = CNC(=O)c1ccc(-c2cccc(C[C@@H](C(=O)[*:2])N(C)[*:1])c2)cc1; X13 = COc1ccc(-c2cccc(C[C@@H](C(=O)[*:2])N(C)[*:1])c2)cc1; X10 = CCCCCC/C=C/c1cccc(C[C@@H](C(=O)[*:2])N(C)[*:1])c1; X14 = CN([C@@H](Cc1cccc(C2=CCCCC2)c1)C(=O)[*:2])[*:1]; NMePhe(3-Br) = CN[C@@H](Cc1cccc(Br)c1)C(=O)O; NMePhe(3-I) = CN[C@@H](Cc1cccc(I)c1)C(=O)O; Hmp(2R,3S) = CC[C@H](C)[C@@H](O)C(=O)O; NMeVal(β-OH) = CN[C@H](C(=O)O)C(C)(C)O; NMeD = CN[C@@H](CC(=O)O)C(=O)O; NMeV = CN[C@H](C(=O)O)C(C)C

Columns and labels:
[1] = tested on: Aspergillus fumigatus; assay: Antifungal activity against Aspergillus fumigatus by broth dilution method; type: functional
[2] = tested on: Candida albicans; assay: Antifungal activity against Candida albicans by broth dilution method; type: functional

Compound	MIC [1]	MIC [2]
CC[C@H](C)[C@@H]1NC(=O)[C@@H]2CCCN2C(=O)[C@H](CC(=O)O)N(C)C(=O)[C@H](CC(=O)O)NC(=O)[C@H](C(C)C)N(C)C(=O)[C@@H]([C@@H](C)CC)OC(=O)[C@H](C(C)(C)O)N(C)C(=O)[C@H](CC(C)C)NC(=O)[C@H](C(C)C)N(C)C1=O (cyclo(D[NMeD]PI[NMeV]L[NMeVal(β-OH)][Hmp(2R,3S)][NMeV]))	> 100 µg/mL	10 µg/mL (≈ 9.64 µM)
CC[C@H](C)[C@@H]1NC(=O)[C@@H]2CCCN2C(=O)[C@H](Cc2cccc(Br)c2)N(C)C(=O)[C@H](CC(=O)O)NC(=O)[C@H](C(C)C)N(C)C(=O)[C@@H]([C@@H](C)CC)OC(=O)[C@H](C(C)(C)O)N(C)C(=O)[C@H](CC(C)C)NC(=O)[C@H](C(C)C)N(C)C1=O (cyclo(D[NMePhe(3-Br)]PI[NMeV]L[NMeVal(β-OH)][Hmp(2R,3S)][NMeV]))	10 µg/mL (≈ 8.71 µM)	5 µg/mL (≈ 4.35 µM)
CCCCCC/C=C/c1cccc(C[C@H]2C(=O)N3CCC[C@H]3C(=O)N[C@@H]([C@@H](C)CC)C(=O)N(C)[C@@H](C(C)C)C(=O)N[C@@H](CC(C)C)C(=O)N(C)[C@@H](C(C)(C)O)C(=O)O[C@H]([C@@H](C)CC)C(=O)N(C)[C@@H](C(C)C)C(=O)N[C@@H](Cc3ccccc3)C(=O)N2C)c1 (cyclo(F[X10]PI[NMeV]L[NMeVal(β-OH)][Hmp(2R,3S)][NMeV]))	> 5 µg/mL	–
CC[C@H](C)[C@@H]1NC(=O)[C@@H]2CCCN2C(=O)[C@H](Cc2cccc(-c3ccc(NC(C)=O)cc3)c2)N(C)C(=O)[C@H](Cc2ccccc2)NC(=O)[C@H](C(C)C)N(C)C(=O)[C@@H]([C@@H](C)CC)OC(=O)[C@H](C(C)(C)O)N(C)C(=O)[C@H](CC(C)C)NC(=O)[C@H](C(C)C)N(C)C1=O (cyclo(F[X12]PI[NMeV]L[NMeVal(β-OH)][Hmp(2R,3S)][NMeV]))	> 5 µg/mL	–
CC[C@H](C)[C@@H]1NC(=O)[C@@H]2CCCN2C(=O)[C@H](Cc2cccc(C3=CCCCC3)c2)N(C)C(=O)[C@H](Cc2ccccc2)NC(=O)[C@H](C(C)C)N(C)C(=O)[C@@H]([C@@H](C)CC)OC(=O)[C@H](C(C)(C)O)N(C)C(=O)[C@H](CC(C)C)NC(=O)[C@H](C(C)C)N(C)C1=O (cyclo(F[X14]PI[NMeV]L[NMeVal(β-OH)][Hmp(2R,3S)][NMeV]))	> 5 µg/mL	–
CC[C@H](C)[C@@H]1NC(=O)[C@@H]2CCCN2C(=O)[C@H](Cc2cccc(-c3ccc(C(=O)NC)cc3)c2)N(C)C(=O)[C@H](Cc2ccccc2)NC(=O)[C@H](C(C)C)N(C)C(=O)[C@@H]([C@@H](C)CC)OC(=O)[C@H](C(C)(C)O)N(C)C(=O)[C@H](CC(C)C)NC(=O)[C@H](C(C)C)N(C)C1=O (cyclo(F[X15]PI[NMeV]L[NMeVal(β-OH)][Hmp(2R,3S)][NMeV]))	> 5 µg/mL	–

Other lines, results leading:

MIC [1]	MIC [2]	Compound
2.5 µg/mL (≈ 2.12 µM)	0.031 µg/mL (≈ 0.0263 µM)	CC[C@H](C)[C@@H]1NC(=O)[C@@H]2CCCN2C(=O)[C@H](Cc2cccc(Br)c2)N(C)C(=O)[C@H](Cc2ccccc2)NC(=O)[C@H](C(C)C)N(C)C(=O)[C@@H]([C@@H](C)CC)OC(=O)[C@H](C(C)(C)O)N(C)C(=O)[C@H](CC(C)C)NC(=O)[C@H](C(C)C)N(C)C1=O (cyclo(F[NMePhe(3-Br)]PI[NMeV]L[NMeVal(β-OH)][Hmp(2R,3S)][NMeV]))
> 5 µg/mL	2.5 µg/mL (≈ 2.04 µM)	CC[C@H](C)[C@@H]1NC(=O)[C@@H]2CCCN2C(=O)[C@H](Cc2cccc(I)c2)N(C)C(=O)[C@H](Cc2ccccc2)NC(=O)[C@H](C(C)C)N(C)C(=O)[C@@H]([C@@H](C)CC)OC(=O)[C@H](C(C)(C)O)N(C)C(=O)[C@H](CC(C)C)NC(=O)[C@H](C(C)C)N(C)C1=O (cyclo(F[NMePhe(3-I)]PI[NMeV]L[NMeVal(β-OH)][Hmp(2R,3S)][NMeV]))
–	5 µg/mL (≈ 4.14 µM)	CC[C@H](C)[C@@H]1NC(=O)[C@@H]2CCCN2C(=O)[C@H](Cc2cccc(-c3ccc(OC)cc3)c2)N(C)C(=O)[C@H](Cc2ccccc2)NC(=O)[C@H](C(C)C)N(C)C(=O)[C@@H]([C@@H](C)CC)OC(=O)[C@H](C(C)(C)O)N(C)C(=O)[C@H](CC(C)C)NC(=O)[C@H](C(C)C)N(C)C1=O (cyclo(F[X13]PI[NMeV]L[NMeVal(β-OH)][Hmp(2R,3S)][NMeV]))
